The target of one experiment is T1, Histone deacetylase 8 (Homo sapiens, UniProt Q9BY41).
T1 sequence (Q9BY41 whole entry): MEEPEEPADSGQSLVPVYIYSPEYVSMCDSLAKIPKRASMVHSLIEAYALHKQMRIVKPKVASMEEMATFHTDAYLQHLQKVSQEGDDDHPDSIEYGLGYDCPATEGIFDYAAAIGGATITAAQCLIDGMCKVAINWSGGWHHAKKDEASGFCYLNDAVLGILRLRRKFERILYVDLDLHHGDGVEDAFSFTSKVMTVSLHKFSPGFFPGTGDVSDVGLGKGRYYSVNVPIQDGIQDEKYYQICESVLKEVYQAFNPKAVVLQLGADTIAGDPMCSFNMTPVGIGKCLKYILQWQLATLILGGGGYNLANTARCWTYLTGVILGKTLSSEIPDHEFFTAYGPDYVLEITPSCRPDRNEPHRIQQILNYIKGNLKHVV
Briefly: Inhibition of human recombinant HDAC8 pre-incubated with compounds for 10 mins measured followed by 60 mins of substrate addition.

Another experiment deals with B16-F10. Briefly: Antiproliferative activity against mouse B16-F10 cells at 1 uM measured after 48 hrs incubation by MTT assay relative to control.
The target in experiment [1] is T2, Protein deacetylase HDAC6 (Homo sapiens, UniProt Q9UBN7).
T2 sequence (Q9UBN7 whole entry): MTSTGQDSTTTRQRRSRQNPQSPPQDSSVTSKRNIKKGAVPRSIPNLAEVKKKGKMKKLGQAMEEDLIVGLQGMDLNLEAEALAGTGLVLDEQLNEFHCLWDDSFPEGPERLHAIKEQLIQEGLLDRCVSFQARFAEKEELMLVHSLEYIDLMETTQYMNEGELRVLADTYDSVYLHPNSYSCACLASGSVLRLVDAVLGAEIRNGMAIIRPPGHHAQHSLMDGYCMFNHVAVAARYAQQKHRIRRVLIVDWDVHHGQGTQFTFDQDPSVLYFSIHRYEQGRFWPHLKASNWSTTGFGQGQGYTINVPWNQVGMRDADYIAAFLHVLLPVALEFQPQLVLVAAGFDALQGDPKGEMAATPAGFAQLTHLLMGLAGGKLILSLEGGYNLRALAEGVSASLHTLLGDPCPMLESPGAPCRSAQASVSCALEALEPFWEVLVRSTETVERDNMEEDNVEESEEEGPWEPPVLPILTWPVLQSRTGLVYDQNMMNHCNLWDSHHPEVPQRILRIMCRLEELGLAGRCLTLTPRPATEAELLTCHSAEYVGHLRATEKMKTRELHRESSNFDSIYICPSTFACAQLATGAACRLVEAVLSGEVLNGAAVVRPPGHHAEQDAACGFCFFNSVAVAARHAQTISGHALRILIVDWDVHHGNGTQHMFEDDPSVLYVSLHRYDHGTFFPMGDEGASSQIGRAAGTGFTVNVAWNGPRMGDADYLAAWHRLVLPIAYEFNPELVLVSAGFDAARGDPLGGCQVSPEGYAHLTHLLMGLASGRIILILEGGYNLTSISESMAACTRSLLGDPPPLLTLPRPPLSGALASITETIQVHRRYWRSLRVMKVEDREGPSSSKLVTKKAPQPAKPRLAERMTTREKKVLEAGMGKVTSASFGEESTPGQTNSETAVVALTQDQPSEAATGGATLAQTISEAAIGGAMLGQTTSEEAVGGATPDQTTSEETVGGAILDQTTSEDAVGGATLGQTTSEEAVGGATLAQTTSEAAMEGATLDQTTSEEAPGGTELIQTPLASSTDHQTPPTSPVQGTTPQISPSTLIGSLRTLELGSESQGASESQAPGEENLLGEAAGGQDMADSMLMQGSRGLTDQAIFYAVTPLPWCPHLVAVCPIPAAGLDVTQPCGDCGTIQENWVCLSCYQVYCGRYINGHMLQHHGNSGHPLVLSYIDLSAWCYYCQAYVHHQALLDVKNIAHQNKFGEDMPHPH
Kind of experiment: Inhibition of human recombinant HDAC6 pre-incubated with compounds for 10 mins measured followed by 60 mins of substrate addition.

The target of another experiment is Histone deacetylase 1 (Homo sapiens, UniProt Q13547). Kind of experiment: Inhibition of human recombinant HDAC1 pre-incubated with compounds for 10 mins measured followed by 60 mins of substrate addition.
The target in the next experiment is Histone deacetylase 3 (Homo sapiens, UniProt O15379). Kind of experiment: Inhibition of human recombinant HDAC3 pre-incubated with compounds for 10 mins measured followed by 60 mins of substrate addition.
In the next experiment the target is T3, Histone deacetylase 7 (Homo sapiens, UniProt Q8WUI4).
T3 sequence (Q8WUI4 whole entry): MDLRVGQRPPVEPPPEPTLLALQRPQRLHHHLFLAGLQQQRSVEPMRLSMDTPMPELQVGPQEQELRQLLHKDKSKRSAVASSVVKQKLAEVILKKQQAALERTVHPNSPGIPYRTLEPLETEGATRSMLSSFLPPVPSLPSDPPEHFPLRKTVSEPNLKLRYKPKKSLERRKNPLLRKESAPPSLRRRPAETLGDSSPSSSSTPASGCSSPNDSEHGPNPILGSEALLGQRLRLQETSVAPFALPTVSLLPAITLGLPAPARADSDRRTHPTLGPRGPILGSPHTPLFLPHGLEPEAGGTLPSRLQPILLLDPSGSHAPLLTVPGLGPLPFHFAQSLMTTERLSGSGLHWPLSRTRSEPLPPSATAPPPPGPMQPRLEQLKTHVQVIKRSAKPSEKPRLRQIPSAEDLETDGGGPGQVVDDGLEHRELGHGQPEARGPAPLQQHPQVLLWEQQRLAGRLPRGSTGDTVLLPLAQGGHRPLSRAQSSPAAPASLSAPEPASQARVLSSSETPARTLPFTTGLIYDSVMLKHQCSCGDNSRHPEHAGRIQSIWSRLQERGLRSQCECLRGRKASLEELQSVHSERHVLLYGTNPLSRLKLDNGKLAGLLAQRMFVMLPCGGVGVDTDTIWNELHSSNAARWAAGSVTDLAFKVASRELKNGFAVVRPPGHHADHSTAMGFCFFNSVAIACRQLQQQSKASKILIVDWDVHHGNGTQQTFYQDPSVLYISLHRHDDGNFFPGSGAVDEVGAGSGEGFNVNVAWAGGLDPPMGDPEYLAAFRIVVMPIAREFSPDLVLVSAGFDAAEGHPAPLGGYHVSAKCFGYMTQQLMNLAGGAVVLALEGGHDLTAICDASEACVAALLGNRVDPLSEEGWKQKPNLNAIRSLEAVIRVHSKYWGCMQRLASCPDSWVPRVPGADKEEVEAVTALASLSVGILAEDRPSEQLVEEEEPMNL
Kind of experiment: Inhibition of human recombinant HDAC7 pre-incubated with compounds for 10 mins measured followed by 60 mins of substrate addition.

In another experiment the test system is B16-F10 (Mus musculus). Briefly: Antiproliferative activity against mouse B16-F10 cells measured after 48 hrs incubation by MTT assay relative to control. To be noted: B16-F10, 48 h.
Experiment [2] is described as follows: Antiproliferative activity against […] cells measured after 48 hrs incubation by MTT assay relative to control. The class given is functional, cell-based. Conditions: Mus musculus, Lung cancer cell line.
The subject of another experiment is HeLa. Kind of experiment: Antiproliferative activity against human HeLa cells measured after 48 hrs incubation by MTT assay relative to control. The class given is functional, cell-based.
Another experiment relates to HCT-116. Kind of experiment: Antiproliferative activity against human HCT-116 cells measured after 48 hrs incubation by MTT assay relative to control. The format is functional, cell-based. Conditions: HCT-116, 48 h.
The next experiment concerns MC-38. Kind of experiment: Antiproliferative activity against mouse MC38 cells measured after 48 hrs incubation by MTT assay relative to control. The format is functional, cell-based. To be noted: MC-38, 48 h. Background: Tetrazolium dyes change colour on reduction, which living cells bring about.
The next experiment deals with HepG2. Kind of experiment: Antiproliferative activity against human HepG2 cells measured after 48 hrs incubation by MTT assay relative to control. The class given is functional, cell-based. To be noted: HepG2, 48 h.
The subject of a further experiment is MCF7. Kind of experiment: Antiproliferative activity against human MCF7 cells measured after 48 hrs incubation by MTT assay relative to control. Conditions: MCF7, 48 h. The class given is functional, cell-based.

Here are results for 13 compounds from ChEMBL document CHEMBL6121046, “Discovery of Novel Hydrazide-Based HDAC3 Inhibitors as Epigenetic Immunomodulators for Cancer Immunotherapy” (J Med Chem, 2025).

Sequence of Histone deacetylase 1 (Q13547 whole entry): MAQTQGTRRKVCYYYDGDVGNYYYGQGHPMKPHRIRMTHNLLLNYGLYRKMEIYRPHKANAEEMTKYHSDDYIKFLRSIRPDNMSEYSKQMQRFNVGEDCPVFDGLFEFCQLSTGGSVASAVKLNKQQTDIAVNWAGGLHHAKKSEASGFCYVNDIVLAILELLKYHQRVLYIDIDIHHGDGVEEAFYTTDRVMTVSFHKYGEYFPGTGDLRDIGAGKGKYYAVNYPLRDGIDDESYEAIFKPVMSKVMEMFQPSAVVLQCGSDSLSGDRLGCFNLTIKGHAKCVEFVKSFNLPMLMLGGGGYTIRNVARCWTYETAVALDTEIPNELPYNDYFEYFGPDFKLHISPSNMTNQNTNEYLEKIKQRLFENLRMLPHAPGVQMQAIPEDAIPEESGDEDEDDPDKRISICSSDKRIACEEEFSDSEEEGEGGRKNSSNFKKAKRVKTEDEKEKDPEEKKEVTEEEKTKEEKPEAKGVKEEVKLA
Sequence of Histone deacetylase 3 (O15379 whole entry): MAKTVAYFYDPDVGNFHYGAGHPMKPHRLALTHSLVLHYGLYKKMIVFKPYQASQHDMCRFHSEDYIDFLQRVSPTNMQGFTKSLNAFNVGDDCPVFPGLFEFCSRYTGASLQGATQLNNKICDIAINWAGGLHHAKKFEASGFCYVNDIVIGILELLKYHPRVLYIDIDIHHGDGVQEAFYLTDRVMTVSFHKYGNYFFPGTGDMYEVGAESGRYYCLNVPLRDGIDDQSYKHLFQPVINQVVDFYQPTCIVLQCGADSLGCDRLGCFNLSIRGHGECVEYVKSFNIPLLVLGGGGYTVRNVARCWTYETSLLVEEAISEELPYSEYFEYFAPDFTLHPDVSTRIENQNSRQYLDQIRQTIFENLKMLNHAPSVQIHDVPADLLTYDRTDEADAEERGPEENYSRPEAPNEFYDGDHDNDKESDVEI

Broadly, the IC50 is the concentration at which inhibition is half-maximal. For the compound `CCCNNC(=O)c1ccc(CNC(=O)c2cnc(-c3ccc4c(c3)OCCO4)[nH]2)cc1`, the half-inhibitory concentration (IC50) was more than 10000 nM on Histone deacetylase 8; more than 10000 nM in [1]; 3910 nM on Histone deacetylase 1; 290 nM at Histone deacetylase 3; more than 10000 nM at Histone deacetylase 7. Moreover, in the experiment with B16-F10, the Activity was 23.11%.

`CCCNNC(=O)c1ccc(CNC(=O)c2ncc(CNc3ccccc3)s2)cc1`: the concentration for half-maximal inhibition (IC50) came to 1770 nM in the experiment on B16-F10 (Mus musculus); 250 nM in experiment [2]; 3770 nM in the experiment with HeLa; 310 nM with HCT-116; 2350 nM with MC-38; 670 nM in the experiment on HepG2. This compound gave an IC50 in the experiment with MCF7 of 1760 nM. In the experiment on B16-F10, this compound came in with an Activity of 57.29%.

With `CCCNNC(=O)c1ccc(CNC(=O)c2cnc(-c3ccnc4ccccc34)[nH]2)cc1`, the concentration for half-maximal inhibition (IC50) was more than 10000 nM at Histone deacetylase 8; more than 10000 nM in [1]; 3240 nM at Histone deacetylase 1; 170 nM at Histone deacetylase 3; more than 10000 nM at Histone deacetylase 7. In the experiment on B16-F10, this compound showed an Activity of 13.07%.

`CCCNNC(=O)c1ccc(CNC(=O)c2cnc(-c3ccc(F)cc3)[nH]2)cc1`: the concentration for half-maximal inhibition (IC50) on Histone deacetylase 8 is more than 10000 nM; in experiment [1], 9020 nM; on Histone deacetylase 1, 960 nM; at Histone deacetylase 3, 130 nM; at Histone deacetylase 7, more than 10000 nM. Further, the Activity with B16-F10 was found to be 37.64%.

Consider `Nc1ccccc1NC(=O)c1ccc(CNC(=O)c2cnc(-c3ccc4ccccc4c3)[nH]2)cc1`, for which the half-inhibitory concentration (IC50) on Histone deacetylase 8 was more than 10000 nM; in [1], more than 10000 nM; on Histone deacetylase 1, 4620 nM; on Histone deacetylase 3 it was 100 nM; on Histone deacetylase 7, more than 10000 nM. The same compound had an Activity in the experiment with B16-F10 of 28.15%.

As to `COc1ccc(-c2ncc(C(=O)NCc3ccc(C(=O)Nc4ccccc4N)cc3)[nH]2)cc1`, the 50% inhibitory concentration (IC50) on Histone deacetylase 8 was more than 10000 nM; in experiment [1] it was more than 10000 nM; on Histone deacetylase 1, 4450 nM; on Histone deacetylase 3, 100 nM; on Histone deacetylase 7, more than 10000 nM. The compound also showed an Activity in the experiment with B16-F10 of 28.07%.

`CCCNNC(=O)c1ccc(CNC(=O)c2cnc(-c3ccc(OC)cc3)[nH]2)cc1`: the half-inhibitory concentration (IC50) was more than 10000 nM at Histone deacetylase 8; more than 10000 nM in experiment [1]; 2360 nM on Histone deacetylase 1; 88 nM on Histone deacetylase 3; more than 10000 nM on Histone deacetylase 7. The compound further displayed an Activity with B16-F10 of 33.01%.

In the case of `Nc1ccccc1NC(=O)c1ccc(CNC(=O)c2cnc(-c3ccccc3)[nH]2)cc1`, the IC50 is more than 10000 nM at Histone deacetylase 8; more than 10000 nM in experiment [1]; 1410 nM on Histone deacetylase 1; 120 nM at Histone deacetylase 3; more than 10000 nM at Histone deacetylase 7. For the same compound, the Activity in the experiment on B16-F10 came to 15.84%.

On to `CCCNNC(=O)c1ccc(CNC(=O)c2cnc(-c3ccccc3)[nH]2)cc1`, for which the IC50 with B16-F10 (Mus musculus) is 3060 nM; at Histone deacetylase 8, more than 10000 nM; in experiment [2], 2190 nM; in the experiment on HeLa, 1970 nM; in experiment [1] it was 8910 nM; on Histone deacetylase 1 it was 2060 nM. For the same compound, the concentration for half-maximal inhibition (IC50) was 66 nM on Histone deacetylase 3; 160 nM in the experiment with HCT-116; more than 10000 nM on Histone deacetylase 7; 5300 nM in the experiment with MC-38; 500 nM with HepG2; 2290 nM in the experiment on MCF7. The compound also returned an Activity in the experiment with B16-F10 of 49.33%.

With `Nc1ccccc1NC(=O)c1ccc(CNC(=O)c2cnc(-c3ccc4occc4c3)[nH]2)cc1`, the IC50 is more than 10000 nM on Histone deacetylase 8; more than 10000 nM in [1]; 4180 nM at Histone deacetylase 1; 91 nM on Histone deacetylase 3; more than 10000 nM on Histone deacetylase 7. In the experiment on B16-F10, this compound registered an Activity of 31.86%.

For `Nc1ccccc1NC(=O)c1ccc(CNC(=O)c2cnc(-c3cccc4ccccc34)[nH]2)cc1`, the IC50 on Histone deacetylase 8 is more than 10000 nM; in experiment [1], 9430 nM; at Histone deacetylase 1 it was 2430 nM; at Histone deacetylase 3 it was 96 nM; at Histone deacetylase 7 it was more than 10000 nM. For the same compound, the Activity with B16-F10 is on record as 39.28%.

Regarding `CCCNNC(=O)c1ccc(CNC(=O)c2cnc(-c3ccc4ccccc4c3)[nH]2)cc1`, the IC50 is 1970 nM in the experiment with B16-F10 (Mus musculus); more than 10000 nM at Histone deacetylase 8; 1370 nM in experiment [2]; 1670 nM in the experiment on HeLa; more than 10000 nM in [1]; 1740 nM at Histone deacetylase 1. The IC50 at Histone deacetylase 3 was 74 nM; in the experiment with HCT-116, 220 nM; at Histone deacetylase 7, more than 10000 nM; with MC-38, 3470 nM; in the experiment with HepG2 it was 690 nM; in the experiment on MCF7 it was 2110 nM. The compound further came in with an Activity in the experiment on B16-F10 of 52.99%.

In the case of `Nc1ccccc1NC(=O)c1ccc(CNC(=O)c2cnc(-c3ccc4c(c3)OCCO4)[nH]2)cc1`, the IC50 on Histone deacetylase 8 is more than 10000 nM; in experiment [1], more than 10000 nM; on Histone deacetylase 1, 3660 nM; on Histone deacetylase 3 it was 330 nM; on Histone deacetylase 7, more than 10000 nM. This compound yielded an Activity with B16-F10 of 13.1%.
